Some test systems named below: MCF7 breast; SNB-75 CNS; COLO 205 colon; MDA-MB-231 breast; A498 renal; HCT-15 colon; PC-3 prostate; HL-60(TB) leukemia; SF-295 CNS; ACHN renal; SK-MEL-5 melanoma; MOLT-4 leukemia; 786-0 renal; SK-MEL-28 melanoma; UO-31 renal; MDA-N.
Common to all, as to assay: growth of human tumour cells (NCI), 48 h

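Values below derive from 48-hour exposures of cells grown in 96-well plates, with endpoints linearly interpolated between the two concentrations bracketing the appropriate inhibition level. Definition used: TGI = concentration required for complete inhibition of growth.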

For the compound `COc1ccc(/C=C2/CSCC3=C2NC(=S)NC3c2ccc(OC)c(OC)c2OC)c(OC)c1OC` (centres undefined), the TGI with MCF7 breast is > 100 µM; in the assay on SNB-75 CNS, > 100 µM; with COLO 205 colon it was 76.9 µM; in the assay with MDA-MB-231 breast, 59.4 µM; in the assay on A498 renal it was 39.1 µM; in the assay on HCT-15 colon, > 100 µM. Moreover, the TGI was 46.2 µM in the assay with PC-3 prostate; > 100 µM in the assay with HL-60(TB) leukemia; > 100 µM in the assay with SF-295 CNS; 52.5 µM in the assay with ACHN renal; 29.8 µM with SK-MEL-5 melanoma; > 100 µM with MOLT-4 leukemia. In addition, the figures for the TGI with 786-0 renal and in the assay with SK-MEL-28 melanoma were 40.7 µM and 81.9 µM, respectively.

As for `O=C(O)/C(Cl)=C(\Cl)C(=O)c1ccccc1`, the TGI with SNB-75 CNS, in the assay with COLO 205 colon, in the assay with A498 renal, in the assay with HCT-15 colon, in the assay with HL-60(TB) leukemia and in the assay with SF-295 CNS was > 100 µM in each case. In addition, the TGI in the assay with ACHN renal, in the assay on SK-MEL-5 melanoma, in the assay with UO-31 renal, with MOLT-4 leukemia, with 786-0 renal and in the assay on SK-MEL-28 melanoma was > 100 µM each time.

Regarding `CCOC(=O)CC(c1ccccc1)C(C)(C(=O)OCC)C(=O)OCC` (centres undefined), the TGI in the assay on MCF7 breast, with SNB-75 CNS, with COLO 205 colon, with MDA-MB-231 breast, in the assay on HCT-15 colon and with PC-3 prostate was > 100 µM in each case. In addition, the TGI in the assay on HL-60(TB) leukemia, in the assay with SF-295 CNS, in the assay with ACHN renal, in the assay on SK-MEL-5 melanoma, with UO-31 renal and in the assay with MOLT-4 leukemia was > 100 µM in each case. The TGI in the assay on 786-0 renal and in the assay with SK-MEL-28 melanoma was > 100 µM each time.

Turning to `C1CSCCSCCCSC2CCCCC2SC1` (centres undefined), the TGI with MCF7 breast, in the assay on SNB-75 CNS, in the assay with COLO 205 colon, in the assay on MDA-MB-231 breast, with HCT-15 colon and in the assay with PC-3 prostate was > 100 µM throughout. Moreover, the TGI in the assay with HL-60(TB) leukemia was 95.3 µM; in the assay on SF-295 CNS, > 100 µM; with MDA-N, > 100 µM; in the assay on SK-MEL-5 melanoma, > 100 µM; with UO-31 renal, > 100 µM; in the assay on MOLT-4 leukemia, > 100 µM. Further, the TGI in the assay with 786-0 renal and in the assay on SK-MEL-28 melanoma was > 100 µM throughout.

On to `COC(=O)c1c(C(=O)OC)c2ccccn2c1-c1cc(OC)c(Br)c(=O)o1`, for which the TGI was 66.3 µM in the assay on SNB-75 CNS; > 100 µM with COLO 205 colon; > 100 µM in the assay on MDA-MB-231 breast; > 100 µM in the assay on A498 renal; > 100 µM in the assay on HCT-15 colon; > 100 µM with PC-3 prostate. The TGI in the assay with HL-60(TB) leukemia, in the assay with SF-295 CNS, in the assay with ACHN renal, in the assay on MDA-N, with SK-MEL-5 melanoma and in the assay with UO-31 renal was > 100 µM in each case. Besides, the TGI in the assay on MOLT-4 leukemia, in the assay with 786-0 renal and with SK-MEL-28 melanoma was > 100 µM in each case.

Turning to `COc1ccc(OC)c(NCC(=O)Nn2cnc3ccc(S(=O)(=O)Nc4cc(OC)ccc4OC)cc3c2=O)c1`, the TGI with MCF7 breast, with SNB-75 CNS, in the assay on COLO 205 colon, in the assay on MDA-MB-231 breast, with HCT-15 colon and in the assay with PC-3 prostate was > 100 µM each time. In addition, the TGI in the assay with HL-60(TB) leukemia was 43.1 µM; in the assay with SF-295 CNS, > 100 µM; in the assay on ACHN renal, > 100 µM; in the assay on MDA-N, > 100 µM; in the assay with UO-31 renal, > 100 µM; in the assay with MOLT-4 leukemia it was > 100 µM. In addition, the TGI in the assay on 786-0 renal and in the assay on SK-MEL-28 melanoma was > 100 µM in each case.

With `S=C(NCCc1ccccn1)N/N=C/c1ccccn1`, the TGI with SNB-75 CNS was > 100 µM; with COLO 205 colon it was 0.452 µM; in the assay with A498 renal, 0.571 µM; in the assay on HCT-15 colon, > 100 µM; with PC-3 prostate, > 100 µM; in the assay on HL-60(TB) leukemia, < 0.01 µM. Also, the TGI was > 100 µM in the assay with SF-295 CNS; 4.82 µM in the assay on ACHN renal; > 100 µM with MDA-N; 2.69 µM in the assay on SK-MEL-5 melanoma; > 49.1 µM in the assay with UO-31 renal; > 89.7 µM in the assay with 786-0 renal. In the assay on SK-MEL-28 melanoma, the TGI was > 100 µM.

As to `CC(=O)Oc1cc(S(=O)(=O)Nc2n[nH]c(Nc3ccc(C)cc3)n2)c(S)cc1Cl`, the TGI in the assay with COLO 205 colon, in the assay with MDA-MB-231 breast, in the assay with A498 renal, with HCT-15 colon, in the assay with PC-3 prostate and in the assay on HL-60(TB) leukemia was > 100 µM each time. Moreover, the TGI in the assay with SF-295 CNS, with ACHN renal, in the assay on MDA-N, with SK-MEL-5 melanoma, in the assay with UO-31 renal and in the assay with MOLT-4 leukemia was > 100 µM in each case. For the same compound, the TGI in the assay with 786-0 renal and in the assay with SK-MEL-28 melanoma was > 100 µM each time.

Consider `CCCCn1c(CSc2ccc(Cl)cc2)c(C(=O)OCC)c2cc(OC)c(Br)cc21`, for which the TGI in the assay on SNB-75 CNS, with COLO 205 colon, in the assay with MDA-MB-231 breast, in the assay with A498 renal, in the assay on HCT-15 colon and with PC-3 prostate was > 100 µM in each case. The TGI with HL-60(TB) leukemia, in the assay with SF-295 CNS, in the assay with ACHN renal, in the assay on MDA-N, with SK-MEL-5 melanoma and with UO-31 renal was > 100 µM in each case. Besides, the TGI in the assay with MOLT-4 leukemia, in the assay with 786-0 renal and in the assay with SK-MEL-28 melanoma was > 100 µM in each case.

For `Cc1cc(Cl)nc2nc(Cl)c(N)cc12`, the TGI is > 22.2 µM in the assay with MCF7 breast; 30 µM with SNB-75 CNS; 4.3 µM with COLO 205 colon; 11.5 µM in the assay on MDA-MB-231 breast; 4.6 µM with HCT-15 colon; 30.4 µM with PC-3 prostate. Moreover, the TGI in the assay with SF-295 CNS was 29.9 µM; in the assay with ACHN renal it was 18.4 µM; in the assay on MDA-N, 3.63 µM; with SK-MEL-5 melanoma, 24.6 µM; in the assay with UO-31 renal it was 9.54 µM; in the assay on MOLT-4 leukemia, > 22.6 µM. The values for the TGI with 786-0 renal and in the assay with SK-MEL-28 melanoma were 10.5 µM and 6.21 µM, respectively.

Source of the values: PubChem BioAssay (NCI).
